≈ marks a conversion by molar mass, not a printed value.
Legend:
[1] = system: Mycobacterium tuberculosis; assay: Inhibition of N-terminal enterokinase-cleavable His-tagged full-length Mycobacterium tuberculosis Zmp1 expressed in Escherichia coli BL21(DE3) assessed as residual enzyme activity at 50 uM using MCA-Pro-Leu-Gly-Leu-Dpa-Ala-Arg-NH2 substrate by fluorometry
[2] = Inhibition of N-terminal enterokinase-cleavable His-tagged full-length Mycobacterium tuberculosis Zmp1 expressed in Escherichia coli BL21(DE3) assessed as reduction in enzyme activity at 50 uM using MCA-Pro-Leu-Gly-Leu-Dpa-Ala-Arg-NH2 substrate by fluorometry
[3] = Cytotoxicity against African green monkey Vero cells assessed as reduction in cell viability incubated for 72 hrs by MTT assay; assay type: cell-based; settings: chlorocebus sabaeus
[4] = Cytotoxicity against human THP1 cells assessed as reduction in cell viability incubated for 72 hrs by MTT assay; assay type: cell-based; settings: THP-1 cells
[5] = system: Mycobacterium tuberculosis; assay: Antimycobacterial activity against Mycobacterium tuberculosis H37Ra ATCC […] assessed as reduction in bacterial growth incubated for 7 days by resazurin microtiter assay; assay type: functional; settings: 168 h
[6] = system: Mycobacterium tuberculosis; assay: Antimycobacterial activity against Mycobacterium tuberculosis infected in human THP1 cells assessed as inhibition of microbial growth by measuring colony forming units at 10 ug/ml incubated for 72 hrs followed by plating on Middlebrook 7H11 medium for 21 days; assay type: functional; settings: THP-1, read-out: GI
[7] = system: Mycobacterium tuberculosis; assay: Antimycobacterial activity against Mycobacterium tuberculosis infected in human THP1 cells assessed as inhibition of microbial growth by measuring colony forming units at 100 ug/ml incubated for 72 hrs followed by plating on Middlebrook 7H11 medium for 21 days; assay type: functional; settings: THP-1, read-out: GI

| Compound | Activity [1] [%] | IC50 [2] [µM] | also measured |
| --- | --- | --- | --- |
| COC(=O)c1cccc(Cc2csc(N[C@H](Cc3ccccc3)C(=O)O)n2)c1 | 100 | – | – |
| COc1cccc(/C=C2\SC(=S)N([C@H](Cc3ccccc3)C(=O)O)C2=O)c1 | 10 | 18.4 | – |
| C[C@H](C(=O)O)N1C(=O)/C(=C/c2cccc(C(=O)O)c2)SC1=S | 12.7 | 1.3 | – |
| COC(=O)c1cccc(/C=C2\SC(=S)N([C@H](Cc3ccccc3)C(=O)O)C2=O)c1 | 13.2 | 12.5 | CC50 at 72 h [3]: 32.5 µg/mL (≈ 76 µM); CC50 at 72 h [4]: 21.9 µg/mL (≈ 51.2 µM); MIC [5]: 64 µg/mL (≈ 150 µM); inhibition of growth at 10 µg/mL [6]: 0.5% |
| O=C(O)CN1C(=O)/C(=C/c2cccc(C(=O)O)c2)SC1=S | 11.2 | 15.7 | – |
| O=C(O)[C@@H](Cc1ccccc1)Nc1nc(-c2ccc([N+](=O)[O-])cc2)cs1 | 36.3 | 35.7 | – |
| O=C(O)CN1C(=O)/C(=C/c2ccc(C(=O)O)cc2)SC1=S | 10.3 | 3.9 | – |
| COc1cccc(-c2csc(N[C@H](Cc3ccccc3)C(=O)O)n2)c1 | 91.9 | – | – |
| O=C(O)c1cccc(/C=C2\SC(=S)N([C@H](Cc3ccccc3)C(=O)O)C2=O)c1 | 13.4 | 9.3 | inhibition of growth at 100 µg/mL [7]: 54.5%; CC50 at 72 h [3]: > 125 µg/mL; CC50 at 72 h [4]: 102 µg/mL (≈ 246 µM); MIC [5]: > 64 µg/mL; inhibition of growth at 10 µg/mL [6]: 23.4% |
| O=C(OCc1ccccc1)c1cccc(/C=C2\SC(=S)N([C@H](Cc3ccccc3)C(=O)O)C2=O)c1 | 13.5 | 24 | CC50 at 72 h [3]: 23.2 µg/mL (≈ 46.1 µM); CC50 at 72 h [4]: 11.2 µg/mL (≈ 22.2 µM); MIC [5]: 64 µg/mL (≈ 127 µM); inhibition of growth at 10 µg/mL [6]: 53.8% |
| O=C(O)c1ccc(/C=C2\SC(=S)N([C@@H](Cc3ccccc3)C(=O)O)C2=O)cc1 | – | – | inhibition of growth at 100 µg/mL [7]: 58.3%; CC50 at 72 h [3]: > 125 µg/mL; CC50 at 72 h [4]: 115 µg/mL (≈ 278 µM); MIC [5]: > 64 µg/mL; inhibition of growth at 10 µg/mL [6]: 57.4% |
| COc1ccc(-c2csc(N[C@H](Cc3ccccc3)C(=O)O)n2)cc1 | 100 | – | – |
| N#Cc1ccc(-c2csc(N[C@H](Cc3ccccc3)C(=O)O)n2)cc1 | 35 | 41.3 | – |
| O=C(O)c1ccc(Cc2csc(N[C@H](Cc3ccccc3)C(=O)O)n2)cc1 | 100 | – | – |
| CC(C)COC(=O)c1ccc(/C=C2\SC(=S)N([C@H](Cc3ccccc3)C(=O)O)C2=O)cc1 | 28.1 | 43.9 | – |
| O=C(O)c1ccc(-c2csc(N[C@H](Cc3ccccc3)C(=O)O)n2)cc1 | 100 | – | – |
| O=C(O)[C@@H](Cc1ccccc1)N1C(=O)/C(=C/c2ccncc2)SC1=S | 19.1 | 26.9 | – |
| COc1cccc(Cc2csc(N[C@H](Cc3ccccc3)C(=O)O)n2)c1 | 100 | – | – |
| O=C(O)[C@@H](Cc1ccccc1)Nc1nc(Cc2ccccc2)cs1 | 100 | – | – |
| COc1ccc(/C=C2\SC(=S)N([C@H](Cc3ccccc3)C(=O)O)C2=O)cc1 | 12.3 | 20.4 | – |
| O=C(O)c1ccc(/C=C2\SC(=S)N([C@H](Cc3ccccc3)C(=O)O)C2=O)cc1 | – | 0.87 | inhibition of growth at 100 µg/mL [7]: 60%; CC50 at 72 h [3]: > 125 µg/mL; CC50 at 72 h [4]: > 125 µg/mL; MIC [5]: > 64 µg/mL; inhibition of growth at 10 µg/mL [6]: 0.1% |
| O=C(O)[C@@H](Cc1ccccc1)N1C(=O)/C(=C/c2cccs2)SC1=S | 10.4 | 11.4 | – |
| COc1cccc(/C=C2\SC(=S)N([C@H](C)C(=O)O)C2=O)c1 | 12.6 | 23.4 | – |
| N#Cc1ccc(/C=C2\SC(=S)N([C@H](Cc3ccccc3)C(=O)O)C2=O)cc1 | 7.1 | 6.6 | – |
| COc1cccc(/C=C2\SC(=S)N(CC(=O)O)C2=O)c1 | 18.9 | 28.2 | – |
| O=C(O)c1cccc(Cc2csc(N[C@H](Cc3ccccc3)C(=O)O)n2)c1 | 100 | – | – |
| COC(=O)c1ccc(Cc2csc(N[C@H](Cc3ccccc3)C(=O)O)n2)cc1 | 61 | – | – |
| C[C@H](C(=O)O)N1C(=O)/C(=C/c2ccc(C(=O)O)cc2)SC1=S | 7.2 | 2.9 | – |
| O=C(OCCc1ccccc1)c1ccc(/C=C2\SC(=S)N([C@H](Cc3ccccc3)C(=O)O)C2=O)cc1 | 58.7 | – | – |
| O=C(O)c1cccc(-c2csc(N[C@H](Cc3ccccc3)C(=O)O)n2)c1 | 100 | – | – |

Source: ChEMBL document CHEMBL4184235, “Design, synthesis, SAR and biological investigation of 3-(carboxymethyl)rhodanine and aminothiazole inhibitors of Mycobacterium tuberculosis Zmp1” (Bioorg Med Chem Lett, 2018)
